The source of these data is ChEMBL document CHEMBL1130746, “Naphthalenebis[alpha,alpha-difluoromethylenephosphonates] as potent inhibitors of protein tyrosine phosphatases” (Bioorg Med Chem Lett, 1998).

SMILES strings stand for the structures.

Experiment [1] deals with T1, Receptor-type tyrosine-protein phosphatase C (Homo sapiens) (UniProt P08575).
T1 sequence (whole entry): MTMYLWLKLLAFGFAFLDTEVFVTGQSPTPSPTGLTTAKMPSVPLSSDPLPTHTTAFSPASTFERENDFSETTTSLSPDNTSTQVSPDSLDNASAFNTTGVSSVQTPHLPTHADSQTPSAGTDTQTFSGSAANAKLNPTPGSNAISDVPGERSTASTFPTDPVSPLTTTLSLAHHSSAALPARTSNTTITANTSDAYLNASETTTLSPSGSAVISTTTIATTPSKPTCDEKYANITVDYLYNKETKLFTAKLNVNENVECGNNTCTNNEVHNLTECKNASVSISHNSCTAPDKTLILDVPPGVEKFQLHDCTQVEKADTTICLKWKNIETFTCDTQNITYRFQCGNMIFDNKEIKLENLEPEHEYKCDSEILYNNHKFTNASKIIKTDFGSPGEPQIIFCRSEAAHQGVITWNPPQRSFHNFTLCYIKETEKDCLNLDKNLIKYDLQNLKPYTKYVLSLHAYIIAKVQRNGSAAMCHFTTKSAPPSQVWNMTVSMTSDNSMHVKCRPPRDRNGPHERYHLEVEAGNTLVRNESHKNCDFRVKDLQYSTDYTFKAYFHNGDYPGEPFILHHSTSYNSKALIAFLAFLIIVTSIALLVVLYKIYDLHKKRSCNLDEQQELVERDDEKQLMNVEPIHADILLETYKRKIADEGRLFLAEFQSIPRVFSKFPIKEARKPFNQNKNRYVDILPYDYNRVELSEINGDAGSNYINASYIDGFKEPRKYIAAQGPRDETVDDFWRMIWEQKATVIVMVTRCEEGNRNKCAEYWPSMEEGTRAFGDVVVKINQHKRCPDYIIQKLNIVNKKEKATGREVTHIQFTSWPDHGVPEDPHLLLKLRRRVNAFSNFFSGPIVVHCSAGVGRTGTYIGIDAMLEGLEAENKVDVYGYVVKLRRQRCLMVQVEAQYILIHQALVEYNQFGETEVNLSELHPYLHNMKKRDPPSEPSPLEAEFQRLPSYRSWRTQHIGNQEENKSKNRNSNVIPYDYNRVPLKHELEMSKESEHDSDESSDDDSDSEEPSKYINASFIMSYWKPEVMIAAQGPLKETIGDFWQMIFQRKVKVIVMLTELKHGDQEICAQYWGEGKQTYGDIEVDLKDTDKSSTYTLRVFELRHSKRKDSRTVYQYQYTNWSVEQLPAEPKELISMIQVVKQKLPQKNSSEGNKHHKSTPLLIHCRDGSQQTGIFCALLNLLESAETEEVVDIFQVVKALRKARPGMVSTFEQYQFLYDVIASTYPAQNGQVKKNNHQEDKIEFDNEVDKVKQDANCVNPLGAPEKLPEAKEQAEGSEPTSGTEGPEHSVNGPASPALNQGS
Put plainly: Compound was evaluated for inhibition of CD45 at a concentration of 500 uM).

The target of experiment [2] is T2, Tyrosine-protein phosphatase non-receptor type 1 (Homo sapiens, UniProt P18031).
T2 sequence (P18031 whole entry): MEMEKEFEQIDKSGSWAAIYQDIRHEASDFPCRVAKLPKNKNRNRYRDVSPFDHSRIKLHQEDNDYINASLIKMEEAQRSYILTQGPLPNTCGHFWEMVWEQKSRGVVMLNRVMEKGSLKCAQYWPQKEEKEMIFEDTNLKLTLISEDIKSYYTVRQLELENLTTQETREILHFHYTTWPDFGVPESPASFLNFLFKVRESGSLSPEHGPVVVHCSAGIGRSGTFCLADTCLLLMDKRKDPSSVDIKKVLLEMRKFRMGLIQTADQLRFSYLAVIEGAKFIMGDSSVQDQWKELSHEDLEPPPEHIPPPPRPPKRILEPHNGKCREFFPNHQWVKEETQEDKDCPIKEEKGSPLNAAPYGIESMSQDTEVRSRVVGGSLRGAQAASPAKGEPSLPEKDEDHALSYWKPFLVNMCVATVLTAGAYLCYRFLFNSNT
Put plainly: Compound was evaluated for 50% inhibition of PTP1B using uM).

Experiment [3] has as its target T3, Receptor-type tyrosine-protein phosphatase C (Homo sapiens, UniProt P08575).
T3 sequence (P08575 whole entry): T1 sequence (whole entry)
Put plainly: Compound was evaluated for 50% inhibition of CD45 using uM).

For experiment [4], the target named is T2, Tyrosine-protein phosphatase non-receptor type 1. Description: Compound was evaluated for inhibitory constant against PTP1B.
Experiment [5] can be described thus: Compound was evaluated for inhibition of PP2A at a concentration of 500 uM).
Experiment [6] can be described thus: Compound was evaluated for 50% inhibition of PP2A, a serine/threonine phosphatase using uM).
Experiment [7] addresses T4, Tyrosine-protein phosphatase non-receptor type 1 (Homo sapiens) (UniProt P18031).
T4 sequence (whole entry): T2 sequence (P18031 whole entry)
Description: Compound was evaluated for inhibition of PTP1B at a concentration of 500 uM).

Experiment [8] concerns the target T1, Receptor-type tyrosine-protein phosphatase C (Homo sapiens). Description: Compound was evaluated for inhibition of CD45 protein-tyrosine phosphatase at a concentration of 500 uM).
Experiment [9] has as its target T3, Receptor-type tyrosine-protein phosphatase C. Description: Compound was evaluated for inhibitory constant against CD45.
The target is the same in experiment [10]. Put plainly: Compound was evaluated for 50% inhibition of CD45 protein-tyrosine phosphatase using uM).

`O=P(O)(O)C(F)(F)c1ccc2ccccc2c1`: the results for the inhibition in experiment [1], in experiment [5] and in experiment [7] were 5%, 39% and 84%, respectively. In addition, the IC50 (usually the concentration that gives 50% inhibition) was 95 µM in experiment [2], more than 1000 µM in [3] and 753 µM in experiment [6]. The affinity in experiment [4] corresponds to a Ki of 197 µM.

For `O=P(O)(O)C(F)(F)c1ccc2c(C(F)(F)P(=O)(O)O)cccc2c1`, the inhibition – broadly, the change of the read-out against control, counted positive when it falls – stood at 75% in [5], 70% in experiment [8] and 89% in [7].

For the molecule `O=P(O)(O)C(F)(F)c1cccc2ccccc12`, the inhibition in experiment [1] was found to be 20%; in experiment [5], 52%; in [7], 83%. Moreover, the values for the IC50 in [2], in experiment [3] and in experiment [6] were 112 µM, more than 1000 µM and 636 µM, respectively. Further, affinity in experiment [4] was put at a Ki of 255 µM.

On to `O=P(O)(O)C(F)(F)c1ccc2cccc(C(F)(F)P(=O)(O)O)c2c1`, for which affinity in [9] was put at a Ki of 9 µM. Moreover, the IC50 in [2] worked out at 118 µM; in [3], 27 µM; in experiment [6], 481 µM. For the same molecule, the inhibition was found to be 61% in [5], 99% in experiment [8] and 98% in [7].

Regarding `O=P(O)(O)Cc1ccc2ccc(CP(=O)(O)O)cc2c1`, the IC50 in experiment [2] is more than 500 µM; in experiment [10], 500 µM.

`O=P(O)(O)C(F)(F)c1cc(O)c2ccccc2c1`: affinity in experiment [4] was put at a Ki of 93 µM. In other words, the double-digit micromolar range.

Take `O=P(O)(O)C(F)(F)c1ccc2cc(C(F)(F)P(=O)(O)O)ccc2c1`: the IC50 in [2] is 29 µM; in experiment [10], more than 100 µM; in experiment [6], 354 µM. Also, the results for the inhibition in experiment [5], in [8] and in experiment [7] were 70%, 62% and 100%, respectively.

On to `O=P(O)(O)C(F)c1ccc2ccc(C(F)P(=O)(O)O)cc2c1` (configuration not stated), for which the IC50 in experiment [2] came out at 130 µM; in experiment [10], 279 µM.

As to `O=P(O)(O)C(F)(F)c1cc(C(F)(F)P(=O)(O)O)c2ccccc2c1`, the inhibition is 66% in [5], 78% in experiment [8] and 81% in [7].

Turning to `O=P(O)(O)C(F)(F)c1ccc2ccc(C(F)(F)P(=O)(O)O)cc2c1`, the results for the inhibition in experiment [1], in experiment [5] and in experiment [7] were 64%, 70% and 100%, respectively. Besides, the IC50 in experiment [3] worked out at 180 µM; in [6] it was 306 µM. Besides, the Ki (as a rule, the dissociation constant of the complex between target and ligand, obtained from inhibition or displacement) in experiment [4] turned out to be 16 µM.

`O=P(O)(O)C(F)(F)c1cccc2c(C(F)(F)P(=O)(O)O)cccc12`: the inhibition was determined as 77% in [5], 26% in experiment [8] and 51% in experiment [7].
